US20260234165A1, “MACROCYCLIC COMPOUNDS, PREPARATION METHOD THEREFOR, AND USE THEREOF” (GENFLEET THERAPEUTICS (SHANGHAI) INC., priority 2004, published 2026)
Where two headings read alike, the source gives them in different places.

What was measured:
[1] = test system: p-ERK in NCI-H441 cells (KRAS G12V mutation); test: Cell p-ERK assay (HTRF) in NCI-H441 cells; format: cell-based, human; settings: NCI-H441 cells, 3 h compound incubation, HTRF p-ERK T202/Y204, read-out: H441 p-ERK IC50
In short: (§1)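 Phospho-ERK inhibition measured by HTRF after a 3 h compound exposure (0.1% DMSO) in overnight-seeded cells; IC50 derived from dose-response fitting.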

[2] = test system: p-ERK in AsPC-1 cells (KRAS G12D mutation); test: Cell p-ERK assay (HTRF) in AsPC-1 cells; format: cell-based, human; settings: AsPC-1 cells, 3 h compound incubation, HTRF p-ERK T202/Y204, read-out: AsPC-1 p-ERK IC50
In short: as §1

IC50 ([1]; Homo sapiens, NCI-H441, 3 h)	IC50 ([2]; Homo sapiens, ASPC1, 3 h)	IC50 [1]	IC50 [2]	SMILES
0.39 nM	0.39 nM			CCn1c(-c2cc(C#C[C@@H]3COCCN3C)cnc2[C@H](C)OC)c2c3cc(ccc31)-c1csc(n1)C[C@H](NC(=O)[C@H]1[C@H](C)[C@@H]1C)C(=O)N1CCC[C@H](N1)C(=O)OCC(C)(C)C2 (atropisomer, axis not shown; (Ra)) [Compound Z672, (1r,2R,3S)—N-((6^3S,4S,Z)-1^1-ethyl-(Ra)-1^2-(2-((S)-1-methoxyethyl)-5-(((R)-4-methylmorpholin-3-yl)ethynyl)pyridin-3-yl)-10,10-dimethyl-5,7-dioxo-6^1,6^2,6^3,6^4,6^5,6^6hexahydro-1^1H-8-oxa-2(4,2)-thiazola-1(5,3)-indola-6(1,3)-pyridazinacycloundecaphane-4-yl)-2,3-dimethylcyclopropane-1-carboxamide]
		0.2 nM	0.16 nM	CO[C@@H](C)c1ncc(C#CCN2CCCOCC2)cc1-c1c2c3cc(ccc3n1CC(F)(F)F)-c1csc(n1)C[C@H](NC(=O)[C@H]1[C@H](C)[C@@H]1C)C(=O)N1CCC[C@H](N1)C(=O)OCC(C)(C)C2 (atropisomer, axis not shown; (Ra)) [Compound Z700, N-((6^3S,4S,Z)-1^1-(2,2,2-trifluoroethyl)-(Ra)-1^2-(2-((S)-1-methoxyethyl)-(5-(3-(1,4-oxazepan-4-yl)prop-1-yn-1-yl))-pyridin-3-yl)-10,10-dimethyl-5,7-dioxo-6^1,6^2,6^3,6^4,6^5,6^6-hexahydro-1^1H-8-oxa-2(4,2)-thiazola-1(5,3)-indola-6(1,3)-pyridazinacycloundecaphane-4-yl)-2,3-dimethylcyclopropane-1-carboxamide]
		0.23 nM	0.32 nM	CCn1c(-c2cc(C#CCN3C4CCC3COC4)cnc2[C@H](C)OC)c2c3cc(ccc31)-c1csc(n1)C[C@H](NC(=O)[C@H]1[C@H](C)[C@@H]1C)C(=O)N1CCC[C@H](N1)C(=O)OCC(C)(C)C2 (atropisomer, axis not shown; (Ra)) [Compound Z711, (1r,2R,3S)—N-((6^3S,4S,Z)—(Ra)-1^2-(5-(3-(3-oxa-8-azabicyclo[3.2.1]octan-8-yl)prop-1-yn-1-yl)-2-((S)-1-methoxyethyl)pyridin-3-yl)-1^1-ethyl-10,10-dimethyl-5,7-dioxo-6^1,6^2,6^3,6^4,6^5,6^6-hexahydro-1^1H-8-oxa-2(4,2)-thiazola-1(5,3)-indola-6(1,3)-pyridazinacycloundecaphane-4-yl)-2,3-dimethylcyclopropane-1-carboxamide]
0.37 nM	1.53 nM			CCn1c(-c2cc(C#CCN3CCC(C(F)(F)F)CC3)cnc2[C@H](C)OC)c2c3cc(ccc31)-c1csc(n1)C[C@H](NC(=O)[C@H]1[C@H](C)[C@@H]1C)C(=O)N1CCC[C@H](N1)C(=O)OCC(C)(C)C2 (atropisomer, axis not shown; (Ra)) [Compound Z778]
		0.19 nM	0.38 nM	CCn1c(-c2cc(C#CCN(C)CCOC)cnc2[C@H](C)OC)c2c3cc(ccc31)-c1csc(n1)C[C@H](NC(=O)[C@H]1[C@H](C)[C@@H]1C)C(=O)N1CCC[C@H](N1)C(=O)OCC(C)(C)C2 (atropisomer, axis not shown; (Ra)) [Compound Z788]
0.09 nM	0.19 nM			CCn1c(-c2cc(C#CCN3CCN(C)C(=O)C3)cnc2[C@H](C)OC)c2c3cc(ccc31)-c1csc(n1)C[C@H](NC(=O)[C@H]1[C@H](C)[C@@H]1C)C(=O)N1CCC[C@H](N1)C(=O)OCC(C)(C)C2 (atropisomer, axis not shown; (Ra)) [Compound Z793]
		0.21 nM	0.58 nM	CCn1c(-c2cc(C#CCN3CCCOCC3)cnc2C(C)C)c2c3cc(ccc31)-c1csc(n1)C[C@H](NC(=O)[C@H]1[C@H](C)[C@@H]1C)C(=O)N1CCC[C@H](N1)C(=O)OCC(C)(C)C2 (atropisomer, axis not shown; (Sa)) [Compound Z811-2, (1r,2R,3S)—N-((6^3S,4S,Z)—(Sa)-1-(5-(3-(1,4-oxazepan-4-yl)prop-1-yn-1-yl)-2-isopropylpyridin-3-yl)-1^1-ethyl-10,10-dimethyl-5,7-dioxo-6^1,6^2,6^3,6^4,6^5,6^6-hexahydro-1^1H-8-oxa-2(4,2)-thiazola-1(5,3)-indola-6(1,3)-pyridazinacycloundecaphane-4-yl)-2,3-dimethylcyclopropane-1-carboxamide]
4.64 nM	10.6 nM			CCO[C@@H](C)c1ncc(N2CCN(CCS(C)(=O)=O)CC2)cc1-c1c2c3cc(ccc3n1CC)-c1csc(n1)C[C@H](NC(=O)[C@H]1[C@H](C)[C@@H]1C)C(=O)N1CCC[C@H](N1)C(=O)OCC1(CC1)C2 (single isomer, unassigned) [Compound Z378-1]
0.55 nM	0.16 nM			CCn1c(-c2cc(C#CCN3CCCOCC3)cnc2[C@H](C)OC)c2c3cc(ccc31)-c1csc(n1)C[C@H](NC(=O)[C@H]1[C@H](C)[C@@H]1C)C(=O)N1CCC[C@H](N1)C(=O)OCC(C)(C)C2 (single isomer, unassigned) [Compound Z504]
1.14 nM	0.85 nM			CCn1c(-c2cc(C#CCN3CCCOCC3)cnc2[C@H](C)OC)c2c3cc(ccc31)-c1csc(n1)C[C@H](NC(=O)CC(C)C)C(=O)N1CCC[C@H](N1)C(=O)OCC(C)(C)C2 (single isomer, unassigned) [Compound Z803]

The next lines start with the molecule.

SMILES	IC50 ([1]; Homo sapiens, NCI-H441, 3 h)	IC50 ([2]; Homo sapiens, ASPC1, 3 h)	IC50 [1]	IC50 [2]
CCn1c(-c2cc(N3CCN4CC5(CC5)OC[C@@H]4C3)cnc2[C@H](C)OC)c2c3cc(ccc31)-c1csc(n1)C[C@H](NC(=O)[C@H]1[C@H](C)[C@@H]1C)C(=O)N1CCC[C@H](N1)C(=O)OCC1(CC1)C2 (atropisomer, axis not shown; (Ra)) [Compound Z13]	0.88 nM	2.24 nM		
CCn1c(-c2cc(C#CCN3CCCN(C)CC3)cnc2[C@H](C)OC)c2c3cc(ccc31)-c1csc(n1)C[C@H](NC(=O)[C@H]1[C@H](C)[C@@H]1C)C(=O)N1CCC[C@H](N1)C(=O)OCC(C)(C)C2 (atropisomer, axis not shown; (Ra)) [Compound Z802, (1r,2R,3S)—N-((6^3S,4S,Z)-1^2-(5-(3-(4-methyl-1,4-diaza-1-yl)prop-1-yn-1-yl)-(Ra)-2-((S)-1-methoxyethyl)pyridin-3-yl)-1^1-ethyl-10,10-dimethyl-5,7-dioxo-6^1,6^2,6^3,6^4,6^5,6^6-hexahydro-1^1H-8-oxa-2(4,2)-thiazola-1(5,3)-indola-6(1,3)-pyridazinacycloundecaphane-4-yl)-2,3-dimethylcyclopropane-1-carboxamide]	0.4 nM	0.2 nM		
CCn1c(-c2cc(C#CCN3CCOC[C@H]3C)cnc2[C@H](C)OC)c2c3cc(ccc31)-c1csc(n1)C[C@H](NC(=O)[C@H]1[C@H](C)[C@@H]1C)C(=O)N1CCCC(N1)C(=O)OCC(C)(C)C2 (atropisomer, axis not shown; (Ra)) [Compound Z813]			0.08 nM	0.08 nM
CCn1c(-c2cc(C#CCN3CCS(=O)(=O)CC3)cnc2[C@H](C)OC)c2c3cc(ccc31)-c1csc(n1)C[C@H](NC(=O)[C@H]1[C@H](C)[C@@H]1C)C(=O)N1CCC[C@H](N1)C(=O)OCC(C)(C)C2 (atropisomer, axis not shown; (Ra)) [Compound Z838, (1r,2R,3S)—N-((6^3S,4S,Z)—(Ra)-1^2-(5-(3-(1,1-dioxidothiomorpholino)prop-1-yn-1-yl)-2-((S)-1-methoxyethyl)pyridin-3-yl)-1^1-ethyl-10,10-dimethyl-5,7-dioxo-6^1,6^2,6^3,6^4,6^5,6^6-hexahydro-1^1H-8-oxa-2(4,2)-thiazola-1(5,3)-indola-6(1,3)-pyridazinacycloundecaphane-4-yl)-2,3-dimethylcyclopropane-1-carboxamide]	0.15 nM	0.08 nM		
CCn1c(-c2cc(C#CCN3CCS(=O)(=O)CC3)cnc2[C@H](C)OC)c2c3cc(ccc31)-c1csc(n1)C[C@H](Nc1nnc3cc(C)ccn13)C(=O)N1CCC[C@H](N1)C(=O)OCC(C)(C)C2 (atropisomer, axis not shown; (Ra)) [Compound Z911, (6^3S,4S,Z)—(Ra)-1^2-(5-(3-(1,1-dioxidothiomorpholino)prop-1-yn-1-yl)-2-((S)-1-methoxyethyl)pyridin-3-yl)-1^1-ethyl-10,10-dimethyl-4-((7-methyl-[1,2,4]triazolo[4,3-a]pyridin-3-yl)amino)-6^1,6^2,6^3,6^4,6^5,6^6-hexahydro-1^1H-8-oxa-2(4,2)-thiazola-1(5,3)-indola-6(1.3)-pyridazinacycloundecaphane-5,7-dione]	0.74 nM	2.23 nM		
CCn1c(-c2cc(C#CCN3CCCOCC3)cnc2[C@H](C)OC)c2c3cc(ccc31)-c1csc(n1)C[C@H](NC(=O)CC1CC1)C(=O)N1CCC[C@H](N1)C(=O)OCC(C)(C)C2 (atropisomer, axis not shown; (Ra)) [Compound Z915]	0.68 nM	1.26 nM		
CCn1c(-c2cc(N3CCN(CCS(C)(=O)=O)CC3)cnc2[C@H](C)OC)c2c3cc(ccc31)-c1csc(n1)C[C@H](NC(=O)[C@H]1[C@H](C)[C@@H]1C)C(=O)N1CCC[C@H](N1)C(=O)OCC1(CC1)C2 (single isomer, unassigned) [Compound Z367]	2.1 nM	7.29 nM		
CCn1c(-c2cc(C#CCN3CCC3)cnc2[C@H](C)OC)c2c3cc(ccc31)-c1csc(n1)C[C@H](NC(=O)[C@H]1[C@H](C)[C@@H]1C)C(=O)N1CCC[C@H](N1)C(=O)OCC(C)(C)C2 (single isomer, unassigned) [Compound Z554]	0.42 nM	0.67 nM		
CCn1c(-c2cc(C#CCN3CCCOCC3)cnc2[C@H](C)OC)c2c3cc(ccc31)-c1csc(n1)C[C@H](NC(=O)[C@H]1C[C@@H]1C)C(=O)N1CCC[C@H](N1)C(=O)OCC(C)(C)C2 (single isomer, unassigned) [Compound Z604]	0.26 nM	0.51 nM		
